One data set in a line: in vivo. The note with it: male, Wistar, rat, po, 15 mg/kg.
The test system of the next data set is Male Wister rats. Kind of data set: Object recognition task model. In kind it is in vivo, rat. The settings on record: 1 mg/kg, p.o. Here is the method:
Object Recognition Task Model
The cognition-enhancing properties of compounds of this invention were estimated using a model of animal cognition: the object recognition task model.
Male Wister rats (230-280 grams) obtained from N. I. N. (National Institute of Nutrition, Hyderabad, India) was used as experimental animals. Four animals were housed in each cage. […] Also the rats were habituated to individual arenas for 1 hour in the absence of any objects.
One group of 12 rats received vehicle (1 mL/Kg) orally and another set of animals received compound of the formula (I) either orally or i.p., before one hour of the familiar (T1) and choice trial (T2).
The experiment was carried out in a 50×50×50 cm open field made up of acrylic. In the familiarization phase, (T1), the rats were placed individually in the open field for 3 minutes, in which two identical objects (plastic bottles, 12.5 cm height×5.5 cm diameter) covered in yellow masking tape alone (a1 and a2) were positioned in two adjacent corners, 10 cm. from the walls. After 24 hours of the (T1) trial for long-term memory test, the same rats were placed in the same arena as they were placed in T1 trial. Choice phase (T2) rats were allowed to explore the open field for 3 minutes in presence of one familiar object (a3) and one novel object (b) (Amber color glass bottle, 12 cm high and 5 cm in diameter). Familiar objects presented similar textures, colors and sizes. During the T1 and T2 trial, explorations of each object (defined as sniffing, licking, chewing or having moving vibrissae whilst directing the nose towards the object at a distance of less than 1 cm) were recorded separately by stopwatch. Sitting on an object was not regarded as exploratory activity, however, it was rarely observed.
T1 is the total time spent exploring the familiar objects (a1+a2).
T2 is the total time spent exploring the familiar object and novel object (a3+b).
The object recognition test was performed as described by Ennaceur, A., Delacour, J., 1988, A new one-trial test for neurobiological studies of memory in rats—Behavioural data, Behav. Brain Res., 31, 47-59.

Data set [1] deals with Male Sprague Dawley rats. Kind of data set: Effect of test compounds on body weight gain in high fat fed rats. The format is in vivo, rat. The settings on record: oral for 14 days, high fat diet fed rats. The source says: Effect of Test Compounds on Body Weight Gain in High Fat Fed Rats
The body weight gain suppressing properties of compounds of this invention were studied using a animal model of obesity.
Male Sprague Dawley rats (150-160 grams) obtained from Reliance Life Sciences, India were used as experimental animals. Rats were fed with control diet (normal pellet diet) and lard based high fat diet (45% kcal diet) for 7-8 weeks. High fat diet fed animals was randomized according to their body weights. The animals were housed in a group of 3-4 per cage. One group of 10 rats received vehicle (2 mL/Kg) orally and another set of animals received compound of the formula (I) orally for 14 days. Body weight of the animals was recorded for first three consecutive days then it was recorded twice weekly. Weighed amount of food was given to the animals and food intake was recorded every 24 hour for the entire study period.

Data set [2] relates to Male Sprague Dawley rats. Kind of data set: DRL-72s model of animal depression. The format is in vivo. The settings on record: p.o.; rat. On the procedure: The antidepressant properties of compounds of this invention were evaluated using a model of animal depression: the DRL-72s model. Male Sprague Dawley rats were used as experimental animals. Rats are trained to lever press for a 4″ access to 0.025 ml of water for each correct response during daily 60 minute sessions. All testing takes place on weekdays only. At the beginning of each session, the house light is illuminated and remains lit until the session ends. No other stimuli are presented during testing. After successful lever press training, rats are then required to respond under a DRL-24 second schedule, where only lever presses that are separated by 24 seconds are reinforced. Upon stable responding on a DRL-24 second schedule (5-10 sessions), rats are trained on a DRL-72 second schedule until responding stabilizes at approximately 15% efficiency (approx 25-35 sessions). Specifically, rats receive a reinforcer for each response that is emitted at least 72 seconds after the previous response (IRT). […] Efficiency is recorded as number of reinforced responses÷total number of responses. After stable baseline responding is achieved, defined as responding for 4 consecutive sessions with no more than 10% variability, animals begin drug testing. Animals receive drug no more than 1× per week.

Data set [3] in a line: Rodent pharmacokinetic study. In kind it is in vivo. The note with it: Wistar, in vivo, Wister rat/Male. The gist of the method: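 Rats, fasted overnight, received NCE orally (15 or 5 mg/kg) and intravenously (5 mg/kg) on day 0 and day 2. Jugular blood sampled pre-dose to 24 h (n=3); plasma NCE measured by LC-MS/MS. Cmax, Tmax, AUCt, T1/2 and bioavailability derived by non-compartmental analysis.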

Data set [4] deals with Nicotinic Acetylcholine α4β2 Receptor (UniProt P09483+P12390). Kind of data set: Binding assay for human or rat nicotinic acetylcholine α4β2 receptor ([3H]Cytisine displacement). The settings on record: [3H]Cytisine 2.5 nM; rat brain frontal cortex or recombinant human receptor in CHO cells (not specified which); read-out: Ki.

Description for in vivo: Rodent Brain Penetration Study
Three animals were housed in each cage. Animals were given water and food ad libitum throughout the experiment, and maintained on a 12 hours light/dark cycle.
NCE compound was dissolved in water and administered orally. At Tmax (0.5, 1.0 and 2.0) animals were sacrificed to collect the plasma and brain tissue and were homogenized. Plasma and Brain was stored frozen at −20° C. until analysis. The concentrations of the NCE compound in plasma and Brain were determined using LC-MS/MS method.
The NCE compounds were quantified in plasma and brain homogenate by validated LC-MS/MS method using solid phase extraction technique. NCE compounds were quantified in the calibration range of 1-500 ng/mL in plasma and brain homogenate. Study samples were analyzed using calibration samples in the batch and quality control samples spread across the batch. Extents of brain-blood ratio were calculated (Cb/Cp).

A word on the AUC(0-t): it is exposure summed from dosing to a finite time, without extrapolation to infinity. A higher AUC(0-t) goes with high exposure. What is called Cmax is the maximum level reached in the sampled fluid or tissue. For orientation: Tmax means the time from dosing to the highest level. Broadly, the half-life is the time needed for the level to fall by half in the phase considered. For orientation: Ki means a measure of affinity in units of concentration, obtained from inhibition or displacement. Take `CNCC1CC2CC2N1c1cccnc1.Cl` (centres unmarked) [Example 4, N-[2-(Pyridin-3-yl)-2-azabicyclo[3.1.0]hex-3-ylmethyl]methylamine hydrochloride]: in the data set “in vivo”, the Kp was determined as 11.7 ± 2.66. For the same compound, in the data set with Male Wister rats, the Inference entry is listed as “Active”. In the data set on Male Wister rats (choice trial), the “Exploration time mean ± S.E.M, Familiar object” value was found to be 7.64 ± 1.052 s and the “Exploration time mean ± S.E.M, Novel object” value turned out to be 14.21 ± 2.364 s. Moreover, the Inference entry with Male Sprague Dawley rats [1] is recorded as “Active”. Further, the “% Reduction in body weight gain compared to vehicle (Day 14)” value in the data set with Male Sprague Dawley rats [1] (Day 14) is recorded as 3.3%. For the same compound, the “Dose (DRL-72s)” value with Male Sprague Dawley rats [2] is given as “≧10 mg/kg, p.o”. Moreover, in data set [3] (5 mg/kg, Intravenous), the AUC(0-t) is 1670 ± 154 ng·h/mL, the highest level (Cmax) was 956 ± 164 ng/mL, the time to peak (Tmax) came out at 0.08 h and the half-life is 5.82 ± 0.53 h. The bioavailability in data set [3] (15 mg/kg Per-Oral vs 5 mg/kg Intravenous) worked out at 105 ± 9%. In addition, in data set [3] (15 mg/kg, Per-Oral), the AUC(0-t) turned out to be 5280 ± 652 ng·h/mL, the Cmax is 1560 ± 294 ng/mL, the time to peak (Tmax) was found to be 0.33 ± 0.14 h and the half-life was 4.48 ± 0.76 h. Moreover, in data set [4], the Ki is 59.4 nM.
